Source: patent US8959984B2, “Proteome-wide quantification of small molecule binding to cellular target proteins” (priority 2007, dated 2015)
Read-outs that look alike come from different tables or passages of the source.

Tests used:
EphB4 = EphB4 (Homo sapiens, UniProt P54760); assay: binding to AX14596 beads (HeLa lysate, SILAC MS)
EphB2 = target: T1, EphB2 (Homo sapiens, UniProt P29323); assay: binding to AX14596 beads (HeLa lysate, SILAC MS)
T1 sequence (P29323 19-1055): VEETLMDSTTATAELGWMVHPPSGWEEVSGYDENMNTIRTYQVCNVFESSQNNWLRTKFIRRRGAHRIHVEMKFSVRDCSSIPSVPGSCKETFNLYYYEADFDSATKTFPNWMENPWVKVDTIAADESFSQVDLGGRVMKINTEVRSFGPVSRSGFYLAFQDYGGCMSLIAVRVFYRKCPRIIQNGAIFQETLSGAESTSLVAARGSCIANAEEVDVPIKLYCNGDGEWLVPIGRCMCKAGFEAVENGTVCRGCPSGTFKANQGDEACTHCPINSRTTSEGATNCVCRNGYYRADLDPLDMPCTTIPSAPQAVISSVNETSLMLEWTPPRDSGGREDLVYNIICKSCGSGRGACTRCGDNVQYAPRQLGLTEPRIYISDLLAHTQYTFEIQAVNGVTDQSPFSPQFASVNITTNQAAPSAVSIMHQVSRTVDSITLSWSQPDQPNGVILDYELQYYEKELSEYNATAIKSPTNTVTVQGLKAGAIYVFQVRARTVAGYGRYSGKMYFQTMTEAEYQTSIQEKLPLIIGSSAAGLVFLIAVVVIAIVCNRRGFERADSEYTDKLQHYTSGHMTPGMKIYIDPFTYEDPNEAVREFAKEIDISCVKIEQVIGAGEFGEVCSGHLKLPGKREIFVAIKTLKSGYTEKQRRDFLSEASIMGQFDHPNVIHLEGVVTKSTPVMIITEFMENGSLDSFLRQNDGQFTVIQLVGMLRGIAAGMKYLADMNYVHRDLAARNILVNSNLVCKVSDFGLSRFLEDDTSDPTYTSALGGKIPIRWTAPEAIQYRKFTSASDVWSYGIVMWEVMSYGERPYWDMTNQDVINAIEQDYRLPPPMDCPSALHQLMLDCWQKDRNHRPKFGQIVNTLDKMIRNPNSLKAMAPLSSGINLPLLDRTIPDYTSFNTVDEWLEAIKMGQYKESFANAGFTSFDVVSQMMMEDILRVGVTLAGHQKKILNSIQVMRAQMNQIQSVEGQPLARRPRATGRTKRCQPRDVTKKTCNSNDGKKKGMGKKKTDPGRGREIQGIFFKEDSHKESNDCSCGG

CDA = target: T2, CDA (Homo sapiens, UniProt P32320); assay: binding to AX14596 beads (HeLa lysate, SILAC MS)
T2 construct: endogenous in cells; host or cells: HeLa S3

CaMK2g (CAMK2G) = CaMK2g (CAMK2G) (Homo sapiens, UniProt Q13555); assay: binding to AX14596 beads (HeLa lysate, SILAC MS)
p38a = target: T3, p38a (Homo sapiens, UniProt Q16539); assay: binding to immobilized V16742 (IVA1/IVA2, HeLa lysate, MS); details: p38a (IPI00221141.2)
T3 construct: endogenous in cells; host or cells: HeLa S3

RPL27A = RPL27A (Homo sapiens, UniProt P46776)

T2 sequence (P32320 whole entry): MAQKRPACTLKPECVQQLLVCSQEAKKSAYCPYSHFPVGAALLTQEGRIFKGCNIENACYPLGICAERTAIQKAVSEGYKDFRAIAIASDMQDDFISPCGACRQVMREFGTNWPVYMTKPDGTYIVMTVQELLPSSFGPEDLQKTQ
EphB4, sequence (P54760 16-987): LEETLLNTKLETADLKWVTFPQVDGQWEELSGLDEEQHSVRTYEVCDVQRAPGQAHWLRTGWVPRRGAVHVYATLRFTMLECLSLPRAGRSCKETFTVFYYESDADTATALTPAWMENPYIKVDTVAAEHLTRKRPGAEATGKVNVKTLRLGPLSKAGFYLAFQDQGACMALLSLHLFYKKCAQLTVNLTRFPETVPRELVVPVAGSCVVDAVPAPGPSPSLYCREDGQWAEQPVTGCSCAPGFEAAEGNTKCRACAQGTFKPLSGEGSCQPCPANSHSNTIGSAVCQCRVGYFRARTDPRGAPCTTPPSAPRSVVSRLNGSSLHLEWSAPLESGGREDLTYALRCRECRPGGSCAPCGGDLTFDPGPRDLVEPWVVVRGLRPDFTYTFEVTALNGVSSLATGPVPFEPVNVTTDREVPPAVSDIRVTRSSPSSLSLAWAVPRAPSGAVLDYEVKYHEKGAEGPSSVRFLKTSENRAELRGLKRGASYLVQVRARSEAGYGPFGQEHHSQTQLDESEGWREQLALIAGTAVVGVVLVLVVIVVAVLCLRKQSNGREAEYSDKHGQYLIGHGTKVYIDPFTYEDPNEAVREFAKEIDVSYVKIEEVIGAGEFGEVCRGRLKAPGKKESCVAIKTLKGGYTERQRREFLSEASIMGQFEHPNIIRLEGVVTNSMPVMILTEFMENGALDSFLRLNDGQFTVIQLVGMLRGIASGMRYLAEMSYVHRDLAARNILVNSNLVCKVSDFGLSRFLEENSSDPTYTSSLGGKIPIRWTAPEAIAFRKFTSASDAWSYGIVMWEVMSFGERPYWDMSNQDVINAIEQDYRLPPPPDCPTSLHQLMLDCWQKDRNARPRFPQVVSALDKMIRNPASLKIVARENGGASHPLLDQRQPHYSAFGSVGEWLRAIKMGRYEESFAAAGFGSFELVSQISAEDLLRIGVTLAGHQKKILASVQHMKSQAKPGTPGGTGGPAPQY
CaMK2g (CAMK2G), sequence (Q13555 whole entry): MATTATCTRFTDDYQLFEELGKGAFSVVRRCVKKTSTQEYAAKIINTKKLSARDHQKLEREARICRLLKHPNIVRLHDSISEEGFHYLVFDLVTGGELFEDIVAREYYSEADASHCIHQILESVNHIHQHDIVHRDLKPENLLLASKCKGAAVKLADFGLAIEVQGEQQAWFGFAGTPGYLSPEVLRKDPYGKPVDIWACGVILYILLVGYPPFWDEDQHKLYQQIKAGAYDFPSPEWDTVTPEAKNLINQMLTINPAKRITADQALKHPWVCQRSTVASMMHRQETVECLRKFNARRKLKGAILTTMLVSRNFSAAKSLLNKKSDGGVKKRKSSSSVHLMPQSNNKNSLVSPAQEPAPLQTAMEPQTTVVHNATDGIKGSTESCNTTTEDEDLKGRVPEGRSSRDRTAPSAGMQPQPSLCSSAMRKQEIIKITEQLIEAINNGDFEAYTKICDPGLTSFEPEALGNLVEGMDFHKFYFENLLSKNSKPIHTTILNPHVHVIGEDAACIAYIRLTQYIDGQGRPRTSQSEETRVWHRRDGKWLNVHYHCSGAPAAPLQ
T3 sequence (Q16539 whole entry): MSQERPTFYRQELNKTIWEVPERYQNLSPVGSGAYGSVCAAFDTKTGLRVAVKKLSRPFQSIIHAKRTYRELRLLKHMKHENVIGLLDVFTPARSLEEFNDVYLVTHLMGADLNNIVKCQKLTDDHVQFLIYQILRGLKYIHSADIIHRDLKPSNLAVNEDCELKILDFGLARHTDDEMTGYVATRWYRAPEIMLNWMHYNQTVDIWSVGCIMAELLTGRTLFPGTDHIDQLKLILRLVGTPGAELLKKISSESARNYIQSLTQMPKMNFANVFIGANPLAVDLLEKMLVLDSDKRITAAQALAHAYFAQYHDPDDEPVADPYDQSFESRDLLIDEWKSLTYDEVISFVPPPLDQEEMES

Q: COc1cc2ncnc(Nc3ccc(F)c(Cl)c3)c2cc1OCCCN [AX14596] was tested. Which Ki (EphB4) did it give?
A: 242 µM

Q: And the “r (3 mg/1 mg lysate)” value (EphB4)?
A: 2.65

Q: And the “r (5 h/2.5 h inc. time)” value (EphB4)?
A: 0.96

Q: And the “rAVERAGE (2. inc/1. inc)” value (EphB4)?
A: 0.71

Q: And the “rAVERAGE (control/1. inc)” value (EphB4)?
A: 0.05

Q: And the “% BOUND” value (EphB4; bound to AX14596 beads)?
A: 29%

Q: What about the Ki (EphB2) of the same molecule?
A: 213 µM

Q: What about the “r (3 mg/1 mg lysate)” value (EphB2) of the same molecule?
A: 3.41

Q: What about the “r (5 h/2.5 h inc. time)” value (EphB2) of the same molecule?
A: 1.06

Q: And the “rAVERAGE (2. inc/1. inc)” value (EphB2)?
A: 0.68

Q: And the “rAVERAGE (control/1. inc)” value (EphB2)?
A: 0.04

Q: And the Ki (CDA)?
A: 402 µM

Q: And the “r (3 mg/1 mg lysate)” value (CDA)?
A: 3.09

Q: And the “rAVERAGE (2. inc/1. inc)” value (CDA)?
A: 0.80

Q: And the “rAVERAGE (control/1. inc)” value (CDA)?
A: 0.09

Q: What about the Ki (CaMK2g (CAMK2G)) of the same molecule?
A: 93.4 µM

Q: And the “r (3 mg/1 mg lysate)” value (CaMK2g (CAMK2G))?
A: 2.45

Q: And the “r (5 h/2.5 h inc. time)” value (CaMK2g (CAMK2G))?
A: 1.17

Q: And the “rAVERAGE (2. inc/1. inc)” value (CaMK2g (CAMK2G))?
A: 0.48

Q: And the “rAVERAGE (control/1. inc)” value (CaMK2g (CAMK2G))?
A: 0.04

Q: Which results are given for CC(C)n1c(=O)ccc2cnc(Nc3ccc(OCCN)cc3)nc21 [V16742]?
A: Percent bound at various 16742 conc (p38a; Experiment 1, 1.87 μM 16742): 4.98%; Percent bound at various 16742 conc (p38a; Experiment 1, 8.74 μM 16742): 6.72%; Percent bound at various 16742 conc (p38a; Experiment 1, 52 μM 16742): 49.78%; Kd (p38a; Experiment 1, read-out: Kd): 58.3 µM; Percent bound at various 16742 conc (p38a; Experiment 2, 1.87 μM 16742): 3.02%; Percent bound at various 16742 conc (p38a; Experiment 2, 8.74 μM 16742): 1.43%; Percent bound at various 16742 conc (p38a; Experiment 2, 52 μM 16742): 24.52%; Kd (p38a; Experiment 2, read-out: Kd): 167 µM; Kd (p38a; average of two experiments, read-out: Kd Avg): 113 µM

Q: With COc1cc2ncnc(Nc3ccc(F)c(Cl)c3)c2cc1OCCCN1CCOCC1 [gefitinib] as the molecule, how does the “rAVERAGE (10 nM/0 nM Gef.)” value (RPL27A) read?
A: 0.87

Q: And the “rAVERAGE (100 nM/0 nM Gef.)” value (RPL27A)?
A: 1.05

Q: What about the “rAVERAGE (1000 nM/0 nM Gef.)” value (RPL27A) of the same molecule?
A: 0.81

Q: What about the “rAVERAGE (10000 nM/0 nM Gef.)” value (RPL27A) of the same molecule?
A: 1.03
